Data published in patent publication US20110118262A1, “Pyrrolidinyl and Piperidinyl Compounds Useful as NHE-1 Inhibitiors” (BOEHRINGER INGELHEIM INTERNATIONAL GMBH, priority 2008, published 2011).

Target: T1, NHE-1 (Homo sapiens, UniProt P19634)
T1 construct: endogenous in cells; host or cells: HT-29
Assay: Evaluation of NHE-1 Inhibition (pHi) in HT-29 cells
Type: cell-based
Conditions: BCECF dye, 50% inhibition of the intracellular pH recovery, read-out: NHE1 HT29 pHi IC50
Method in brief: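 Intracellular pH measured with BCECF in HT-29 cells after 24 h culture. Cells dye-loaded 30 min at 37° C, then acid-loaded with NH4Cl-containing choline buffer (pH 7.5) for 30 min at RT. Compounds added on an FDSS6000 fluorescence reader.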

T1 sequence (P19634 whole entry): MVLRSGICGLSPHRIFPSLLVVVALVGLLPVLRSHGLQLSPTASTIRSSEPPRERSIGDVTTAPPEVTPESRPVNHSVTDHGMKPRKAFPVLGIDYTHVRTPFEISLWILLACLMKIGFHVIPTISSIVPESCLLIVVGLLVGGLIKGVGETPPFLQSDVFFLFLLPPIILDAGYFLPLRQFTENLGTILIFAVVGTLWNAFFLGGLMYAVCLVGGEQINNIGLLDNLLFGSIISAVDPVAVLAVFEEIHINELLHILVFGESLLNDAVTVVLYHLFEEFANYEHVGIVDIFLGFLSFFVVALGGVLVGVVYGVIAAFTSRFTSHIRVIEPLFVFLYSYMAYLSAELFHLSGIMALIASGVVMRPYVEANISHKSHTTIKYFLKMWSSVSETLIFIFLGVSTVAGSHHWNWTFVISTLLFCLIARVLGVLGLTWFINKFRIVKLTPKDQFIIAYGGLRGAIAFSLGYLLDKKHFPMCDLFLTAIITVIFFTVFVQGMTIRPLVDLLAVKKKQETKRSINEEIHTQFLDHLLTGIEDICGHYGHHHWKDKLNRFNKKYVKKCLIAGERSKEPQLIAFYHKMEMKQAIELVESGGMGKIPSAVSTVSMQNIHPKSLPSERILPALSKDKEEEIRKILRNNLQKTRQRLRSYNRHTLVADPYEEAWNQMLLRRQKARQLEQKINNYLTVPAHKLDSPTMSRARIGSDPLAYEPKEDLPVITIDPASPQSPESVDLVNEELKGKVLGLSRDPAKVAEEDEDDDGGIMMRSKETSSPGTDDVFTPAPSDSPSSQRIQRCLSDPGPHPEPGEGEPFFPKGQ

Row | IC50 | Compound
1 | 23 nM | Cc1cc(C2CCN(C(=O)c3ccc(F)cc3)CC2)c(S(C)(=O)=O)cc1C(=O)NC(=N)N [N-{4-[1-(4-Fluoro-benzoyl)-piperidin-4-yl]-5-methanesulfonyl-2-methyl-benzoyl}-guanidine]
2 | 40 nM | N=C(N)NC(=O)c1ccc(C2CCN(C(=O)c3ccc(F)cc3)C2)c(C(F)(F)F)c1 (stereo not drawn) [N-{4-[1-(4-Fluoro-benzoyl)-pyrrolidin-3-yl]-3-trifluoromethyl-benzoyl}-guanidine]
3 | 25 nM | N=C(N)NC(=O)c1ccc(C2CCN(C(=O)c3ccc(O)cc3)CC2)c(C(F)(F)F)c1 [N-{4-[1-(4-Hydroxy-benzoyl)-piperidin-4-yl]-3-trifluoromethyl-benzoyl}-guanidine]
4 | 33 nM | N=C(N)NC(=O)c1ccc(C2=CCN(C(=O)c3ccc(-n4ccnc4)cc3)CC2)c(C(F)(F)F)c1 [N-{4-[1-(4-Imidazol-1-yl-benzoyl)-1,2,3,6-tetrahydro-pyridin-4-yl]-3-trifluoromethyl-benzoyl}-guanidine]
5 | 71 nM | N=C(N)NC(=O)c1ccc(C2CCN(C(=O)c3ccc(-n4ccnc4)cc3)CC2)c(C(F)(F)F)c1 [N-{4-[1-(4-Imidazol-1-yl-benzoyl)-piperidin-4-yl]-3-trifluoromethyl-benzoyl}-guanidine]
6 | 28 nM | C[S+]([O-])c1ccc(C(=O)N2CCC(c3ccc(C(=O)NC(=N)N)cc3C(F)(F)F)CC2)cc1 (stereo not drawn) [N-{4-[1-(4-Methanesulfinyl-benzoyl)-piperidin-4-yl]-3-trifluoromethyl-benzoyl}-guanidine]
7 | 49 nM | CS(=O)(=O)c1ccc(C(=O)N2CC=C(c3ccc(C(=O)NC(=N)N)cc3C(F)(F)F)CC2)cc1 [N-{4-[1-(4-Methanesulfonyl-benzoyl)-1,2,3,6-tetrahydro-pyridin-4-yl]-3-trifluoromethyl-benzoyl}-guanidine]
8 | 20 nM | Cc1cc(C2CCN(C(=O)c3ccc(S(C)(=O)=O)cc3)CC2)c(C(F)(F)F)cc1C(=O)NC(=N)N [N-{4-[1-(4-Methanesulfonyl-benzoyl)-piperidin-4-yl]-2-methyl-5-trifluoromethyl-benzoyl}-guanidine]
9 | 21 nM | CS(=O)(=O)c1ccc(C(=O)N2CCC(c3ccc(C(=O)NC(=N)N)cc3C(F)(F)F)CC2)cc1 [N-{4-[1-(4-Methanesulfonyl-benzoyl)-piperidin-4-yl]-3-trifluoromethyl-benzoyl}-guanidine]
10 | 195 nM | COc1ccc(C(=O)N2CCC(c3ccc(C(=O)NC(=N)N)cc3C(F)(F)F)CC2)cc1 [N-{4-[1-(4-Methoxy-benzoyl)-piperidin-4-yl]-3-trifluoromethyl-benzoyl}-guanidine]
11 | 320 nM | COc1ccc(C(=O)N2CCC(c3ccc(C(=O)NC(=N)N)cc3C(F)(F)F)CC2)c2ccccc12 [N-{4-[1-(4-Methoxy-naphthalene-1-carbonyl)-piperidin-4-yl]-3-trifluoromethyl-benzoyl}-guanidine]
12 | 122 nM | COCc1ccc(C(=O)N2CCC(c3ccc(C(=O)NC(=N)N)cc3C(F)(F)F)CC2)cc1 [N-{4-[1-(4-Methoxymethyl-benzoyl)-piperidin-4-yl]-3-trifluoromethyl-benzoyl}-guanidine]
13 | 47 nM | CN1CCOc2cc(C(=O)N3CCC(c4ccc(C(=O)NC(=N)N)cc4C(F)(F)F)CC3)ccc21 [N-{4-[1-(4-Methyl-3,4-dihydro-2H-benzo[1,4]oxazine-7-carbonyl)-piperidin-4-yl]-3-trifluoromethyl-benzoyl}-guanidine]
14 | 109 nM | N=C(N)NC(=O)c1ccc(C2CCN(C(=O)c3ccc(-c4cnco4)cc3)CC2)c(C(F)(F)F)c1 [N-{4-[1-(4-Oxazol-5-yl-benzoyl)-piperidin-4-yl]-3-trifluoromethyl-benzoyl}-guanidine]
15 | 88 nM | N=C(N)NC(=O)c1ccc(C2CCN(C(=O)c3ccc(-n4cccn4)cc3)CC2)c(C(F)(F)F)c1 [N-{4-[1-(4-Pyrazol-1-yl-benzoyl)-piperidin-4-yl]-3-trifluoromethyl-benzoyl}-guanidine]
16 | 250 nM | N=C(N)NC(=O)c1ccc(C2CCN(C(=O)c3ccc(N4CCCC4)cc3)CC2)c(C(F)(F)F)c1 [N-{4-[1-(4-Pyrrolidin-1-yl-benzoyl)-piperidin-4-yl]-3-trifluoromethyl-benzoyl}-guanidine]
17 | 230 nM | N=C(N)NC(=O)c1ccc(C2CCN(C(=O)c3ccc(S(=O)(=O)C(F)(F)F)cc3)CC2)c(C(F)(F)F)c1 [N-{4-[1-(4-Trifluoromethanesulfonyl-benzoyl)-piperidin-4-yl]-3-trifluoromethyl-benzoyl}-guanidine]
18 | 36 nM | Cc1cc(C2CCN(C(=O)c3ccc(C#N)cc3)CC2)c(C(F)(F)F)cc1C(=O)NC(=N)N [N-{4-[1-(4-cyano-benzoyl)-piperidin-4-yl]-2-methyl-5-trifluoromethyl-benzoyl}-guanidine]
19 | 27 nM | Cc1cc(C2CCN(C(=O)c3ccc(C#N)cc3)CC2)c(S(C)(=O)=O)cc1C(=O)NC(=N)N [N-{4-[1-(4-cyano-benzoyl)-piperidin-4-yl]-5-methanesulfonyl-2-methyl-benzoyl}-guanidine]
20 | 204 nM | N=C(N)NC(=O)c1ccc(C2CCN(C(=O)c3cncc(-c4ccccc4)c3)CC2)c(C(F)(F)F)c1 [N-{4-[1-(5-Phenyl-pyridine-3-carbonyl)-piperidin-4-yl]-3-trifluoromethyl-benzoyl}-guanidine]

Row | IC50 | Compound
21 | 39 nM | N#Cc1ccc(C(=O)N2CCC(c3ccc(C(=O)NC(=N)N)cc3C(F)(F)F)CC2)cn1 [N-{4-[1-(6-Cyano-pyridine-3-carbonyl)-piperidin-4-yl]-3-trifluoromethyl-benzoyl}-guanidine]
22 | 21 nM | N=C(N)NC(=O)c1ccc(C2CCN(C(=O)c3ccc(O)nc3)CC2)c(C(F)(F)F)c1 [N-{4-[1-(6-Hydroxy-pyridine-3-carbonyl)-piperidin-4-yl]-3-trifluoromethyl-benzoyl}-guanidine]
23 | 14 nM | N=C(N)NC(=O)c1ccc(C2CCN(C(=O)c3ccc(-n4ccnc4)nc3)CC2)c(C(F)(F)F)c1 [N-{4-[1-(6-Imidazol-1-yl-pyridine-3-carbonyl)-piperidin-4-yl]-3-trifluoromethyl-benzoyl}-guanidine]
24 | 390 nM | COc1ccc2cc(C(=O)N3CCC(c4ccc(C(=O)NC(=N)N)cc4C(F)(F)F)CC3)ccc2c1 [N-{4-[1-(6-Methoxy-naphthalene-2-carbonyl)-piperidin-4-yl]-3-trifluoromethyl-benzoyl}-guanidine]
25 | 58 nM | COc1ccc(C(=O)N2CCC(c3ccc(C(=O)NC(=N)N)cc3C(F)(F)F)CC2)cn1 [N-{4-[1-(6-Methoxy-pyridine-3-carbonyl)-piperidin-4-yl]-3-trifluoromethyl-benzoyl}-guanidine]
26 | 92 nM | N=C(N)NC(=O)c1ccc(C2CCN(C(=O)c3ccc(-n4cccn4)nc3)CC2)c(C(F)(F)F)c1 [N-{4-[1-(6-Pyrazol-1-yl-pyridine-3-carbonyl)-piperidin-4-yl]-3-trifluoromethyl-benzoyl}-guanidine]
27 | 75 nM | N=C(N)NC(=O)c1ccc(C2CCN(C(=O)c3ccc(N4CCCC4)nc3)CC2)c(C(F)(F)F)c1 [N-{4-[1-(6-Pyrrolidin-1-yl-pyridine-3-carbonyl)-piperidin-4-yl]-3-trifluoromethyl-benzoyl}-guanidine]
28 | 114 nM | N=C(N)NC(=O)c1ccc(C2CCN(C(=O)c3ccc4ncsc4c3)CC2)c(C(F)(F)F)c1 [N-{4-[1-(Benzothiazole-6-carbonyl)-piperidin-4-yl]-3-trifluoromethyl-benzoyl}-guanidine]
29 | 55 nM | N=C(N)NC(=O)c1ccc(C2CCN(C(=O)c3ccco3)CC2)c(C(F)(F)F)c1 [N-{4-[1-(Furan-2-carbonyl)-piperidin-4-yl]-3-trifluoromethyl-benzoyl}-guanidine]
30 | 11 nM | N=C(N)NC(=O)c1ccc(C2CCN(C(=O)c3ccco3)C2)c(C(F)(F)F)c1 (stereo not drawn) [N-{4-[1-(Furan-2-carbonyl)-pyrrolidin-3-yl]-3-trifluoromethyl-benzoyl}-guanidine]
31 | 17 nM | N=C(N)NC(=O)c1ccc(C2CCN(C(=O)c3cn4ccccc4n3)CC2)c(C(F)(F)F)c1 [N-{4-[1-(Imidazo[1,2-a]pyridine-2-carbonyl)-piperidin-4-yl]-3-trifluoromethyl-benzoyl}-guanidine]
32 | 35 nM | N=C(N)NC(=O)c1ccc(C2CCN(C(=O)C3COCCN3)CC2)c(C(F)(F)F)c1 (stereo not drawn) [N-{4-[1-(Morpholine-3-carbonyl)-piperidin-4-yl]-3-trifluoromethyl-benzoyl}-guanidine]
33 | 260 nM | N=C(N)NC(=O)c1ccc(C2CCN(C(=O)c3cccc4ccccc34)CC2)c(C(F)(F)F)c1 [N-{4-[1-(Naphthalene-1-carbonyl)-piperidin-4-yl]-3-trifluoromethyl-benzoyl}-guanidine]
34 | 9 nM | N=C(N)NC(=O)c1ccc(C2CCN(C(=O)C3CCCCN3)CC2)c(C(F)(F)F)c1 (stereo not drawn) [N-{4-[1-(Piperidine-2-carbonyl)-piperidin-4-yl]-3-trifluoromethyl-benzoyl}-guanidine]
35 | 17 nM | N=C(N)NC(=O)c1ccc(C2CCN(C(=O)C3CCCNC3)CC2)c(C(F)(F)F)c1 (stereo not drawn) [N-{4-[1-(Piperidine-3-carbonyl)-piperidin-4-yl]-3-trifluoromethyl-benzoyl}-guanidine]
36 | 6 nM | N=C(N)NC(=O)c1ccc(C2CCN(C(=O)C3CCNCC3)CC2)c(C(F)(F)F)c1 [N-{4-[1-(Piperidine-4-carbonyl)-piperidin-4-yl]-3-trifluoromethyl-benzoyl}-guanidine]
37 | 10 nM | N=C(N)NC(=O)c1ccc(C2CCN(C(=O)c3ccccn3)CC2)c(C(F)(F)F)c1 [N-{4-[1-(Pyridine-2-carbonyl)-piperidin-4-yl]-3-trifluoromethyl-benzoyl}-guanidine]
38 | 10 nM | N=C(N)NC(=O)c1ccc(C2CCN(C(=O)c3cccnc3)CC2)c(C(F)(F)F)c1 [N-{4-[1-(Pyridine-3-carbonyl)-piperidin-4-yl]-3-trifluoromethyl-benzoyl}-guanidine]
39 | 9 nM | N=C(N)NC(=O)c1ccc(C2CCN(C(=O)c3ccncc3)CC2)c(C(F)(F)F)c1 [N-{4-[1-(Pyridine-4-carbonyl)-piperidin-4-yl]-3-trifluoromethyl-benzoyl}-guanidine]
